# Measurements as given in patent publication EP4810493A1, “HETEROCYCLIC CARBONYL DERIVATIVE MODULATOR, PREPARATION METHOD THEREFOR, AND USE THEREOF” (Shanghai Hansoh Biomedical Co., Ltd., priority 2023, dated 2025).
# Target: T1, M4 receptor (Homo sapiens, UniProt P08173)
# T1 construct: expressed in transfected cells
# T1 sequence (P08173 1-479): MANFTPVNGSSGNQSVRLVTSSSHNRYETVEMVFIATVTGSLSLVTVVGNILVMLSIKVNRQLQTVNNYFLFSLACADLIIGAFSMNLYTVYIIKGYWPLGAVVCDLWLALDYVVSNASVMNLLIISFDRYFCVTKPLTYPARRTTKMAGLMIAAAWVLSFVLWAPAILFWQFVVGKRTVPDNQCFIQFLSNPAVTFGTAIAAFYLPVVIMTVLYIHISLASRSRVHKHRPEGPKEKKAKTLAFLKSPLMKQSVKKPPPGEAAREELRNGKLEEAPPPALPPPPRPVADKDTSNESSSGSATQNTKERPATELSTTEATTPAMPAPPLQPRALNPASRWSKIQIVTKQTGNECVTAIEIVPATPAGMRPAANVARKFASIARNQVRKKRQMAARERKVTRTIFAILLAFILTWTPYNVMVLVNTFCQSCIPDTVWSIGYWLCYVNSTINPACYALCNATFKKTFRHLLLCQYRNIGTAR
# Test: Calcium flux (FLIPR) potentiation assay in cells stably expressing M4 receptor
# Assay type: cell-based
# Conditions: not given
# Description: Test example 1. Determination of the effect of the compounds of the present invention on calcium current in cells stably expressing M1-M5 receptors
# To detect the potentiating effect of compounds on calcium flux activity in CHO-K1/human M1/3/5 and CHO-K1/Gα15 M2/4 cells.
# 384-well assay plate, 384-well plate, FLIPR Tip, FLIPR Penta plate reader, Dispendix non-contact nanoliter dispensing system (liquid handling workstation), liquid handler.
# Ham's F-12 Nutrient Mix, foetal bovine serum, P/S (Gibco: 15140122), HBSS (Gibco: 14025076), HEPES (Gibco: 15630080), FLIPR calcium 6 assay kit (Molecular Devices: R8190), Probenecid (PBA) (Invitrogen: P36400), Acetylcholine chloride (Sigma: A6625-25G) Complete culture medium: DMEM + 10% FBS + 1X P/S; Cell seeding medium: DMEM + 10% FBS + 1X PS; Assay buffer 1: 1X HBSS + 20 mM HEPES +2.5 mM Probenecid; Assay buffer 2: 1X HBSS + 20 mM HEPES; Cell line: CHO-K1/M1; CHO-K1/M2/Gα15; CHO-K1/M3; CHO-K1/M4/Gα15; CHO-K1/M5.
# FLIPR calcium 6 assay kit: Component A was dissolved in Assay buffer 1, and the mixture was shaken for 1-2 min, sub-packaged and stored at -20°C.
# • 1) CHO-K1/M1; CHO-K1/M2/Gα15; CHO-K1/M3; CHO-K1/M4/Gα15; and CHO-K1/M5 cell lines were cultured separately in complete culture medium at 37°C, 5% CO2 to 70%-90% confluency. • 2) The cells were digested and resuspended in cell seeding medium, 5,000 cells/well/20 µL were seeded into a 384-well cell culture plate, and the cells were cultured at 37°C, 5% CO2 for 24 hours. • 3) The cell culture plate was taken out of the CO2 incubator and equilibrated at room temperature for 10 minutes. • 4) Component A solution was removed and allowed to equilibrate to room temperature. 20 µL of Component A solution was added to each well of the cell culture plate, and incubated at room temperature in the dark for 1 hour. • 5) Acetylcholine chloride (ACh), a muscarinic receptor agonist, was prepared in Assay buffer 2 at EC20/EC100 concentrations; subsequently, 30 µL of the prepared muscarinic receptor agonist was added to a 384-well agonist plate (PE: 6008590) using a Multidrop Combi; the working solutions of the positive control compound and the test compound were serially diluted at a 3.16-fold gradient and dispensed (450 nL) into a 384-well compound plate (PE: 6008590) using the Dispendix liquid handling workstation; 30 µL of Assay buffer 2 was added to the 384-well compound plate (PE: 6008590) using the Multidrop Combi; the positive control compound and the test compound were diluted to 6X, mixed by shaking, and placed at room temperature until use. • 6) 10 µL of the diluted 6X compound was added to the assay wells of the corresponding 384-well cell plate using the FLIPR Penta, followed by a 2-minute incubation. • 7) 10 µL of the prepared muscarinic receptor agonist was added to the assay wells of the corresponding 384-well cell plate using the FLIPR Penta, with simultaneous data acquisition.
# FLIPR Penta was used to read and collect the fluorescence signal value (RFU). The maximum RFU value was used to calculate the percent activation data based on the readings of the Low control (DMSO control group) and High control (ACh EC100) experimental groups {% activation rate = (RFUsample - RFUlow control) / (RFUhigh control - RFUlow control)×100}. The test compound was diluted 3.16X in the reaction system to generate 11 concentration points ranging from 30 µM to […].
row,Structure (SMILES),EC50
1,Cc1c2c(c3ncnn3c1C)CN(C(=O)CC1CN(c3ccc4c(ccn4C)c3)C1)C2 [Example 309],28.1 nM

# Same assay, conditions: CHO-K1/M4/Gα15 cells; potentiation of acetylcholine (EC20) calcium flux; read-out: M4 FLIPR EC50
row,Structure (SMILES),EC50
1,COc1nccc(N2CC(OC(=O)N3Cc4c(C)c(C)n5ncnc5c4C3)C2)n1 [Example 239],42.6 nM
2,CCOc1cc(N2CC(CC(=O)N3Cc4c(C)c(C)n5ncnc5c4C3)C2)ccn1 [Example 235],35.3 nM
3,Cc1c2c(c3nc(C4CC4)nn3c1C)CN(C(=O)CC1CN(c3ccnc(C(F)(F)F)c3)C1)C2 [Example 143],30.9 nM
4,Cc1nc2c3c(c(C)c(C)n2n1)CN(C(=O)C1CCN(c2ccncn2)C1)C3 (centres unmarked) [Example 140],51.7 nM
5,Cc1c2c(c3ncnn3c1C)CN(C(=O)CC1CN(c3ncc(C4CC(F)(F)C4)cn3)C1)C2 [Example 320],34.1 nM
6,"Cc1c2c(c3ncnn3c1C)CN(C(=O)C1CC(Nc3ncc(C(F)(F)F)cn3)C1)C2 (centres unmarked) [Example 299, (5,6-Dimethyl-7,9-dihydro-8H-pyrrolo[3,4-c][1,2,4]triazolo[1,5-a]pyridin-8-yl)(3-((5-(trifluoromethyl)pyrimidin-2-yl)amino)cyclobutyl)methanone]",26.8 nM
7,[2H]C([2H])([2H])Oc1cc(N2CC(OC(=O)N3Cc4c(C)c(C)n5ncnc5c4C3)C2)ccn1 [Example 247],96.3 nM
8,Cc1nc2c3c(c(C)c(C)n2n1)CN(C(=O)CC1CN(c2ccnc(OC4CC4)c2)C1)C3 [Example 230],16.3 nM
9,Cc1c2c(c3ncnn3c1C)CN(C(=O)OC1CN(c3cc(C(F)(F)F)ncc3Cl)C1)C2 [Example 180],69.5 nM
10,Cc1c2c(c3ncnn3c1C)CN(C(=O)CC1CN(c3cc(C(F)(F)F)ncc3Cl)C1)C2 [Example 204],33 nM
11,CN=S(C)(=O)c1ccc(N2CC(CC(=O)N3Cc4c(C)c(C)n5ncnc5c4C3)C2)cc1 (centres unmarked) [Example 38],37.9 nM
12,Cc1c2c(c3ccnn3c1C)CN(C(=O)CC1CN(c3ccnc(OCC(F)F)c3)C1)C2 [Example 203],90 nM
13,"COc1c(C)c2c(n3ncnc13)CN(C(=O)CC1CN(c3ccnc(C(F)(F)F)c3)C1)C2 [Example 292, 1-(4-Methoxy-5-methyl-7,8-dihydro-6H-[1,2,4]triazolo[5,1-f]pyrrolo[4,3-b]pyridin-7-yl)-2-{1-[2-(trifluoromethyl)pyridin-4-yl]azetidin-3-yl}ethan-1-one]",53.5 nM
14,Cc1c2c(c3nccn3c1C)CN(C(=O)OC1CN(c3ccnc(C(F)(F)F)c3)C1)C2 [Example 71],71.9 nM

# Next, values leading:
row,EC50,Structure (SMILES)
1,14.7 nM,"Cc1c2c(c3ncnn3c1C)CN(C(=O)CC1CN(c3ccnc(C(F)(F)F)c3)C1)C2 [Example 20, 1-(5,6-Dimethyl-7,9-dihydro-8H-pyrrolo[3,4-c][1,2,4]triazolo[1,5-a]pyridin-8-yl)-2-(1-(2-(trifluoromethyl)pyridin-4-yl)azetidin-3-yl)ethan-1-one]"
2,12.4 nM,Cc1c2c(c3ncnn3c1C)CN(C(=O)CC1CN(c3cc(Cl)ncc3Cl)C1)C2 [Example 146]
3,12.4 nM,Cc1c2c(c3ncnn3c1C)CN(C(=O)CC1CN(c3ccc4nc(C(F)(F)F)cn4n3)C1)C2 [Example 213]
4,11.2 nM,Cc1ccc(N2CC(CC(=O)N3Cc4c(C)c(C)n5ncnc5c4C3)C2)cn1 [Example 318]
5,11.1 nM,Cc1c2c(c3ncnn3c1C)CN(C(=O)CC1CN(c3ccc4c(cnn4C4CC4)c3)C1)C2 [Example 306]
6,11.1 nM,Cc1c2c(c3ncnn3c1C)CN(C(=O)CC1CN(c3ccnc(OCC(F)F)c3)C1)C2 [Example 185]
7,8.8 nM,"Cc1c2c(c3nccn3c1C)CN(C(=O)CC1CN(c3ccnc(C(F)(F)F)c3)C1)C2 [Example 60, 1-(5,6-Dimethyl-7,9-dihydro-8H-imidazo[1,2-a]pyrrolo[3,4-c]pyridin-8-yl)-2-(1-(2-(trifluoromethyl)pyridin-4-yl)azetidin-3-yl)ethan-1-one]"

# Tested on: not listed separately
# Test: Pharmacokinetic determination in SD rats
# Conditions: rat, in vivo, po; male SD rats, p.o. 5 mg/kg
# Description: To investigate the pharmacokinetic behaviours of the example compounds in both plasma and brain of SD rats (test animals) following oral administration at a dose of 5 mg/kg.
# 2.1 Test drugs: The example compounds of the present invention, made in house.
# 2.2 Test animals: SD Rat, male.
# 24 SD Rats, male; p.o. respectively at a dose of 5 mg/kg and an administration volume of 10 mL/kg after the rats were fasted overnight.
# Formulation of a drug for oral administration: 0.5% CMC-Na (1% Tween 80).
# 0.50 g of sodium carboxymethyl cellulose (CMC-Na, viscosity: 800-1200 Cps) was weighed and dissolved in 99 mL of purified water, and 1 ml of Tween 80 was added. The components were mixed thoroughly under stirring to form a clear solution.
# The example compound was weighed into a 100 mL glass vial, 80 mL of the solution was added, and the mixture was subjected to ultrasound treatment for 10 minutes to obtain a homogeneous suspension with a concentration of 0.5 mg/mL.
# After the test animals were euthanised by CO2, blood samples were collected from the heart and brain tissues were harvested at 0.25 h, 0.5 h, 1 h, 2 h, 4 h, 6 h, 8 h, and 24 h post-dose. Blood was placed in EDTA-2K tubes, and centrifuged at 6000 rpm for 6 min at 4°C to separate the plasma. Brain tissues were rinsed with pre-cold PBS, blotted dry, and weighed. Both plasma and brain samples were stored at -80°C. The animals were fed 4 h after administration.
# • 3) 40 uL of plasma sample was precipitated with 160 uL of acetonitrile, mixed, and centrifuged at 3500 × g for 5-20 min. Brain tissues were diluted, homogenised and centrifuged. • 4) 100 uL of the treated supernatant solution was taken for LC/MS/MS analysis to determine the concentration of the test compounds.
# • Liquid phase conditions: Shimadzu LC-20AD pump • Mass spectrometry conditions: AB Sciex API 4000 mass spectrometer • Chromatographic column: Phenomenex Gemiu 5 um C18 50 × 4.6 mm • Mobile phase: solution A: 0.1% formic acid in water, solution B: acetonitrile • Flow rate: 0.8 mL/min • Elution time: 0-4.0 min, with eluents as follows:
# The main pharmacokinetic parameters were calculated using WinNonlin 8.1.
AUC(0-inf),Cmax,Tmax,Structure (SMILES)
9320 ng·h/mL,1380 ng/mL,2 h,Cc1c2c(c3ccnn3c1C)CN(C(=O)OC1CN(c3ccnc(C(F)F)c3)C1)C2 [Example 142]

# Same assay, conditions: rat, in vivo, po; male SD rats, p.o. 5 mg/kg; read-out: MRT 0-∞
row,MRT inf,Structure (SMILES)
1,4.4 h,Cc1c2c(c3ccnn3c1C)CN(C(=O)OC1CN(c3ccnc(C(F)F)c3)C1)C2 [Example 142]
